Laboratory results published in patent US10000793B2, “Method for enumeration of mammalian cell micronuclei, while distinguishing chromatin of dead and dying cells” (priority 2004, dated 2018).
Structures can show the parent of a compound that is named as a salt. Where two headings read alike, the source gives them in different places.

How the values were obtained:
L5178Y cells [1] = test system: L5178Y cells
Description: (§1) Samples, stored for up to two days at 4° C., were gently tapped to resuspend the particles. Data acquisition and analysis was then accomplished with a single-laser flow cytometer, 488 nm excitation (FACSCalibur, BD Biosciences, San Jose, Calif.). Instrumentation settings and data acquisition/analysis were controlled with CellQuest software v3.3 (BD Biosciences). SYTOX-associated fluorescence emission was collected in the FL1 channel (530/30 band-pass filter), and EMA-associated fluorescence was collected in the FL3 channel (670 long-pass filter). Events were triggered on FL1 fluorescence. The FCM gating strategy that was developed for this micronuclei scoring application required events to meet each of six separate criteria before they were scored as nuclei or micronuclei (see FIGS. 2A-H). The incidence of flow cytometric-scored micronuclei is expressed as frequency percent (no. micronuclei/no. nuclei×100), and are based on the acquisition of 20,000 EMA-negative nuclei per specimen.
That is, by displaying the SYTOX-associated signal as fluorescence area (FL1-A), qualitative assessments of cell cycle-related effects were possible. […] Note that while these observations are presented in a qualitative manner, software packages are available which are capable of deconvoluting such histograms to provide quantitative assessment of cell cycle effects.

L5178Y cells [2] = experiment: In vitro micronucleus test, flow cytometric (EMA/SYTOX) and microscopy scoring, L5178Y cells
Description: L5178Y cells were treated over a range of chemical concentrations in culture medium, one 25 cm^2 flask per concentration. During treatment, cells were at 3×10^5/ml in a volume of 20 ml per flask (this high number of cells facilitated multiple readings per flask). After a 4 hr treatment period, cells were washed one time via centrifugation at 600×g, resuspended in a volume of 40 ml culture medium, and transferred to 75 cm^2 flasks. Cells were re-incubated at 37° C. for 20 additional hrs—the equivalent of two normal doubling times.
In this case, cultures (1.5×10^5 cells/ml, 40 ml/flask) were continuously exposed to chemical over a range of concentrations. Cells were harvested after 24 hrs of incubation at 37° C. without recovery.
At the time of cell harvest, FDA+ and PI+ cell counts were performed as described supra. […] Cells were collected via centrifugation at approximately 600×g for 5 minutes. Supernatants were aspirated, and cells were resuspended with gentle tapping. […] These tubes were placed in racks and submerged to a depth of approximately 2 cm in crushed ice. A visible light source (60 watt light bulb) was positioned approximately 30 cm above the tubes for 20 minutes.
After the photoactivation period, 800 μl cold buffer solution was added to each sample. From this point forward, exposure of samples to light was minimized with dim lighting and foil. The contents of the tubes were then transferred to 15 ml polypropylene centrifuge tubes, and 8 ml of cold buffer solution was added to each sample. Cells were collected via centrifugation, and supernatants aspirated such that approximately 50 μl of supernatant remained per tube. Cells were gently resuspended with tapping, and were maintained at room temperature until the follow procedures were initiated (within 30 minutes). 1 ml “Lysis Solution 1” was added slowly to each tube (approximately 15 seconds per sample). […] Upon addition of Lysis Solution 1, the tube was immediately vortexed (medium setting) for 5 seconds. These samples were kept at room temperature for 1 hr. At this time, 1 ml “Lysis Solution 2” was injected forcefully into each tube, which were immediately vortexed (medium) for 5 seconds. […] These specimens were maintained at room temperature for 30 minutes. Subsequently, samples were stored at 4° C. until flow cytometric analysis (up to two days following cell harvest/staining/lysis procedures).
as §1
Approximately 3.5×10^6 cells per culture were centrifuged and resuspended with 20 μl heat-inactivated fetal bovine serum. 5 μl aliquots were applied to glass slides. Air dried slides were submerged in absolute methanol for 10 minutes and then stored in the dark until staining and analysis. […] An Olympus BH-2 fluorescence microscope was used for micronuclei measurements at 400× magnification. For each treated culture, 2000 mononucleated, non-apoptotic, non-necrotic cells were analyzed for the presence of micronuclei (1000 cells×2 slides per culture).

L5178Y cells [3] = experiment: Cytotoxicity, % EMA-positive events by flow cytometry; assay type: cell-based
Source text: (§2) Events were triggered on FL1 fluorescence.
In addition to supplying genotoxicity and cell cycle information, these flow cytometric analyses were capable of concurrently providing a measure of cytotoxicity. Specifically, the frequency of EMA-positive events is a statistic that relates to membrane integrity. […] This statistic could be useful for helping to identify chemical concentrations that are too cytotoxic for reliable genotoxicity assessment.

L5178Y cells [4] = test system: L5178Y cells; remark: listed apart in the source
Description: Once L5178Y or CHO-K1 cells were collected as described above, cytotoxicity measurements were performed as follows: 0.5 ml of each culture was added to flow cytometry tubes containing fluorescein diacetate (“FDA”) (0.075 μg/ml), propidium iodide (“PI”) (25 μg/ml), and 2.5 μm Carmine 580/620 microspheres (Molecular Probes, Eugene, Oreg.). The concentration of these “counting beads” was determined with a hemacytometer. […] Relative survival was then calculated as follows: The number of FDA+ cells in each chemical treatment culture was expressed as a percentage of the number of FDA+ cells in the concurrent solvent control culture.

CHO-K1 cells = experiment: In vitro micronucleus test, flow cytometric and microscopy scoring, CHO-K1 cells; assay type: cell-based, Chinese hamster; details: 4 hr treatment, 20 hr recovery, 0-40 μg/ml, FIG. 8
Description: On the day before treatment, CHO-K1 cells were harvested and counted, and their density was adjusted to 6×10^4/ml in culture medium. This cell suspension was added to 75 cm^2 flasks (20 ml per flask; one flask per exposure group). After incubating for approximately 16 to 24 hrs at 37° C., spent culture medium was replaced with 20 ml fresh, pre-warmed medium per flask. Methyl methanesulfonate was added from 1000× strength stock solutions for final concentrations of 0, 10, 20, 30, and 40 μg/ml, at which time cultures where reincubated at 37° C. After a 4 hr treatment period, culture medium was aspirated, cells were rinsed one time with an isotonic salt solution, and then 20 ml fresh, pre-warmed culture medium was added to each flask. These cultures were reincubated for a 20 hr recovery period. At the time of cell harvest, 2.5 ml typsin/EDTA solution per flask was used to detach cells from culture vessels. Cells were collected via centrifugation and responded in culture medium.
as §2
5 μl aliquots were applied to glass slides.

Row | Structure (SMILES) | Cell Cycle Effect (L5178Y cells [1]) | MN Induction (≥3-fold) (L5178Y cells [2]) | also measured
1 | CC[C@]1(O)C[C@@H]2CN(CCc3c([nH]c4ccccc34)[C@@](C(=O)OC)(c3cc4c(cc3OC)N(C)[C@H]3[C@@](O)(C(=O)OC)[C@H](OC(C)=O)[C@]5(CC)C=CCN6CC[C@]43[C@@H]65)C2)C1 [Vinblastine sulfate] | +++ | Yes | micronucleus response, continuous 24 hr exposure versus short-term treatment (L5178Y cells [2]): greater
2 | OC[C@H]1O[C@@](CO)(O[C@H]2O[C@H](CO)[C@@H](O)[C@H](O)[C@H]2O)[C@@H](O)[C@@H]1O [Sucrose] | − |  | micronucleus-induction (L5178Y cells [2]; L5178Y cells, continuous-treatment exposure (24 hr)): not evident; % EMA-positive events (L5178Y cells [3]): non-cytotoxic
3 | O=P1(N(CCCl)CCCl)NCCCO1 (centres unmarked) [Cyclophosphamide monohydrate] |  |  | MN Induction (≥3-fold) (L5178Y cells [2]; L5178Y cells, treatment/recovery 4/20 hrs, benzo[a]pyrene and cyclophosphamide with 10% v/v metabolic activation system): Yes
4 | C[C@@H]1C[C@H]2[C@@H]3CCC4=CC(=O)C=C[C@]4(C)[C@@]3(F)[C@@H](O)C[C@]2(C)[C@@]1(O)C(=O)CO [Dexamethasone] | − | No | changes in % micronuclei (L5178Y cells [2]): Nil to slight changes; increase in % micronuclei relative to solvent control (L5178Y cells [2]; mouse): less than 3 fold; cell survival (L5178Y cells [4]): significantly affected cell survival
5 | NC(=O)NO [Hydroxyurea] | +++ | Yes | 
6 | COS(C)(=O)=O [Methyl methanesulfonate] | +++ | Yes | micronucleus frequency (CHO-K1 cells): dose-related increase
